Holding throughout (assay type): functional
For assay [1], the system named is Mycobacterium tuberculosis. In words: Antimycobacterial activity against drug-susceptible Mycobacterium tuberculosis H37Rv by microplate Alamar blue assay. (In general: Alamar Blue is a resazurin reagent that responds to reducing activity.)
The subject of assay [2] is Mycobacterium tuberculosis. In words: Potency index, ratio of trans-fagaramide MIC to test compound MIC for antimycobacterial activity against drug-susceptible Mycobacterium tuberculosis H37Rv.
Assay [3] concerns Mycobacterium tuberculosis. As to the kind of experiment: Antimycobacterial activity against drug-susceptible Mycobacterium tuberculosis H37Rv.

The text below walks through data of ChEMBL document CHEMBL6153122, “Antimycobacterial Activities of the Zanthoxylum leprieurii Metabolite Adubangoamide and Non-Natural Fagaramide Analogues” (2025).

In general, MIC refers to the smallest concentration in the dilution series that meets the test's criterion for growth inhibition.

Converted amounts (≈) assume the structure as drawn.

With `O=C(/C=C/c1ccc2c(c1)OCO2)NCc1ccccc1`, the MIC in assay [1] is 167 µM (≈ 47 µg/mL). Regarding `CC(C)=CCOc1ccc(/C=C/C(=O)NCC(C)C)cc1`, the MIC in assay [1] was found to be 10 µM (≈ 2.87 µg/mL). Besides, the Ratio in assay [2] is reported as 3. On to `CC(C)CNC(=O)/C=C/c1ccc2c(c1)OCO2` [FOGARAMIDE], for which the MIC in assay [3] amounted to 32 µM (≈ 7.91 µg/mL).

For `O=C(/C=C/c1ccc2c(c1)OCO2)NCc1ccccc1Cl`, in assay [1], the MIC came out at 100 µM (≈ 31.6 µg/mL). In assay [1], `O=C(/C=C/c1ccc2c(c1)OCO2)NCc1cc(F)cc(F)c1` registered an MIC of 6.1 µM (≈ 1.94 µg/mL). Further, the Ratio in assay [2] turned out to be 6. In turn, `CO[C@H]1/C=C/O[C@@]2(C)Oc3c(C)c(O)c4c(O)c(c(/C=N/N5CCN(C)CC5)c(O)c4c3C2=O)NC(=O)/C(C)=C\C=C\[C@H](C)[C@H](O)[C@@H](C)[C@@H](O)[C@@H](C)[C@H](OC(C)=O)[C@@H]1C` [RIFAMPIN] gave an MIC in assay [1] of 0.3 µM (≈ 0.247 µg/mL). For `COc1cccc(CNC(=O)/C=C/c2ccc3c(c2)OCO3)c1`, the MIC in assay [1] stood at 200 µM (≈ 62.3 µg/mL). In the case of `CN(C)c1ccc(CNC(=O)/C=C/c2ccc3c(c2)OCO3)cc1`, the MIC in assay [1] worked out at 6 µM (≈ 1.95 µg/mL). Also, in assay [2], the Ratio is on record as 6.

With `O=C(/C=C/c1ccc2c(c1)OCO2)NCc1ccc(N2CCC(C(F)(F)F)CC2)cc1`, the minimum inhibitory concentration (MIC) in assay [1] stood at 4.5 µM (≈ 1.95 µg/mL). Besides, the Ratio in assay [2] was 6. `O=C(/C=C/c1ccc2c(c1)OCO2)NCc1ccc(N2CCC(c3ccc(F)cc3)CC2)cc1`: it took 17 µM (≈ 7.8 µg/mL) to inhibit growth in assay [1] (MIC). This lies in the double-digit micromolar range. The same measure, in the same setting: in the case of `O=C(/C=C/c1ccc2c(c1)OCO2)NCc1ccc(C(F)(F)F)cc1F` it was 21 µM (≈ 7.71 µg/mL).
